According to patent publication US20240409558A1, “IRREVERSIBLE INHIBITORS OF KRAS” (BIOMEA FUSION, INC., priority 2021, published 2024):

Tested on: human KRAS G12C mutated cell line MIA PaCa-2
Test: Inhibition of proliferation of MIA PaCa-2 cells (CellTiter-Glo, 7 day)
Assay type: cell-based
Conditions: 168 h, Table 3, 7 day, mean, read-out: MIA PaCa-2 IC50 (μM) 7 day Mean
Excerpt: The present example evaluates the ability of compounds provided herein to inhibit proliferation of KRAS mutant cells.
The proliferation inhibitory effect was investigated in the human KRAS G12C mutated cell line MIA PaCa-2 (Yunis et al., 1977, Int. J. Cancer 19(1):128-135; ATCC catalog no. CRL-1420). Cells were maintained in RPMI-1640 medium (ThermoFisher catalog no. 61870036) supplemented with 10% of Heat Inactivated FBS (ThermoFisher catalog no. A31605) and 1% Pen-Strep (ThermoFisher catalog no. 10378016) and cultured at 37° C. in a humidified incubator with 5% CO2. Cell lines were grown by adhering to culture flasks, and the cells were maintained in a range 70%-80% confluency.
ATP is present in all metabolically active cells and is considered as a marker for cell viability and proliferation. Metabolic cell activity was determined using the CellTiter-Glo kit (Promega catalog no. G7572), an ATP monitoring system based on the production of luminescence by the reaction of ATP with added UltraGlo® recombinant luciferase (Kawano et al., 2016, PLOS One, 8; 11(7):e0158888), according to the supplier's experimental recommendations. The assay was based on a 96 well plate format.
Test compounds were dissolved at 10 mM in DMSO (Sigma catalog no. D8418; purity >99.9%) and stored at −20° C. Eight concentrations of test compound were assessed in duplicate in an individual test occasion in parallel in the selected cell lines. MRTX-849 and AMG-510 were used as reference compounds and tested in duplicate at eight concentrations. 100% of proliferation is represented by the untreated cells (0.2% DMSO).
(§1) On the day of the experiment (TO), cells were detached with TrypLE (ThermoFisher catalog no. 12604054) and quantified using the Vi-CELL XR Cell Viability (Beckman Coulter) analyzer and diluted with fresh medium to obtain the cell density of about 1000 cells per 200 μL medium. 200 μL of cell suspension were added into wells in the 96 well plate.
After 2 hours from seeding cells, compounds were added using a D300e compound dispenser (Tecan Trading AG) at desired concentrations with shaking between each compound dispensed. Cell plates containing 200 μL/well were incubated at 37° C. in a humidified incubator with 5% CO2.
On day T3, 150 μL of growth media per well were removed from plates containing the samples, 150 uL fresh growth media were added to each well, and fresh compounds were added using a D300e compound dispenser (Tecan Trading AG) at desired concentrations with shaking between each compound dispensed. Cell plates containing 200 uL/well were incubated at 37° C. in a humidified incubator with 5% CO2. On day T7 plates containing the samples were equilibrated at room temperature for approximately 15 min, and then 40 μL/well of the Promega CellTiterGlo® reagent was added. Contents were mixed for 30 minutes on an orbital shaker to induce cell lysis. Luminescence was read using a Synergy Neo 2 (Agilent Technologies.
Data was expressed as % of inhibition compared to the 0.2% DMSO negative control, and is calculated as follows: % inhibition=100−[(RLU sample)×100/(RLU controls*)], where * indicates the average for 0.2% DMSO. […]
as §1, with “12604054),” for “12604054) and”, “resuspended in” for “diluted with”, “at a” for “to obtain the”, “to each well of a” for “into wells in the”
Two hours after seeding cells, compounds were added at desired concentrations using a D300e compound dispenser (Tecan Trading AG) with shaking after each compound addition. Assay plates were incubated at 37° C. in a humidified incubator with 5% CO2.
On day 3 (T3) 150 μL of medium from assay plates were removed. 150 μL fresh medium and compounds were added at desired concentrations using a D300e compound dispenser (Tecan Trading AG) with shaking after each compound addition. […]

SMILES	IC50 [µM]
C=CC(=O)N1CCN(c2nc(OC[C@@]34CCCN3C[C@H](F)C4)nc3cc(-c4cc(O)cc(Cl)c4C4CC4)cnc23)CC12CC2 [Compound 314, 1-[7-[7-(3-chloro-2-cyclopropyl-5-hydroxy-phenyl)-2-[[(2R,8S)-2-fluoro-1,2,3,5,6,7-hexahydropyrrolizin-8-yl]methoxy]pyrido[3,2-d]pyrimidin-4-y1]-4,7-diazaspiro[2.5]octan-4-yl]prop-2-en-1-one]	> 1
C=CC(=O)N1CCN(c2nc(OC[C@@]34CCCN3C[C@H](F)C4)nc3cc(-c4cc(O)cc(Cl)c4C4CC4)c(F)cc23)C2(CC2)C1 [Compound 316, 1-[4-[7-(3-chloro-2-cyclopropyl-5-hydroxy-phenyl)-6-fluoro-2-[[(2R,8S)-2-fluoro-1,2,3,5,6,7-hexahydropyrrolizin-8-yl]methoxy]quinazolin-4-yl]-4,7-diazaspiro[2.5]octan-7-yl]prop-2-en-1-one]	> 1
C=CC(=O)N1CCN(c2nc(OC[C@@]34CCCN3C[C@H](F)C4)nc3cc(-c4cc(O)cc(Cl)c4C4CC4)c(F)cc23)CC12CC2 [Compound 317, 1-[7-[7-(3-chloro-2-cyclopropyl-5-hydroxy-phenyl)-6-fluoro-2-[[(2R,8S)-2-fluoro-1,2,3,5,6,7-hexahydropyrrolizin-8-yl]methoxy]quinazolin-4-yl]-4,7-diazaspiro[2.5]octan-4-yl]prop-2-en-1-one]	> 1
C=CC(=O)N1C[C@H]2C[C@@H]1CN2c1nc(OC[C@@]23CCCN2C[C@H](F)C3)nc2cc(-c3cc(O)cc(Cl)c3C3CC3)c(F)cc12 [Compound 318, 1-[(1R,4R)-5-[7-(3-chloro-2-cyclopropyl-5-hydroxy-phenyl)-6-fluoro-2-[[(2R,8S)-2-fluoro-1,2,3,5,6,7-hexahydropyrrolizin-8-yl]methoxy]quinazolin-4-yl]-2,5-diazabicyclo[2.2.1]heptan-2-yl]prop-2-en-1-one]	> 1
C=CC(=O)N1CCN(c2nc(OC[C@@]34CCCN3C[C@H](F)C4)nc3cc(-c4cc(O)cc(Cl)c4C4CC4)cnc23)C2(CC2)C1 [Compound 319, 1-[4-[7-(3-chloro-2-cyclopropyl-5-hydroxy-phenyl)-2-[[(2R,8S)-2-fluoro-1,2,3,5,6,7-hexahydropyrrolizin-8-yl]methoxy]pyrido[3,2-d]pyrimidin-4-yl]-4,7-diazaspiro[2.5]octan-7-yl]prop-2-en-1-one]	> 1
C=CC(=O)N1C2CCC1CN(c1nc(OC[C@@]34CCCN3C[C@H](F)C4)nc3cc(-c4cccc5cccc(Cl)c45)c(F)cc13)C2 [Compound 321, 1-[3-[7-(8-chloro-1-naphthyl)-6-fluoro-2-[[(2R,8S)-2-fluoro-1,2,3,5,6,7-hexahydropyrrolizin-8-yl]methoxy]quinazolin-4-y1]-3,8-diazabicyclo[3.2.1]octan-8-yl]prop-2-en-1-one]	> 1

Now from value to compound:

IC50 [µM]	SMILES
> 1	C=CC(=O)N1CCN(c2nc(OC[C@@]34CCCN3C[C@H](F)C4)nc3cc(-c4cccc5cccc(Cl)c45)c(F)cc23)C2(CC2)C1 [Compound 315]
> 1	C=CC(=O)N1CCN(c2nc(OC[C@@]34CCCN3C[C@H](F)C4)nc3cc(-c4c(O)cccc4C4CC4)cnc23)[C@H](C)C1 [Compound 320, 1-[(3R)-4-[7-(2-cyclopropyl-6-hydroxy-phenyl)-2-[[(2R,8S)-2-fluoro-1,2,3,5,6,7-hexahydropyrrolizin-8-yl]methoxy]pyrido[3,2-d]pyrimidin-4-yl]-3-methyl-piperazin-1-yl]prop-2-en-1-one]
> 1	C=CC(=O)N1C[C@H]2C[C@@H]1CN2c1nc(OC[C@@]23CCCN2C[C@H](F)C3)nc2cc(-c3cccc4cccc(Cl)c34)c(F)cc12 [Compound 322, 1-[(1R,4R)-5-[7-(8-chloro-1-naphthyl)-6-fluoro-2-[[(2R,8S)-2-fluoro-1,2,3,5,6,7-hexahydropyrrolizin-8-yl]methoxy]quinazolin-4-y1]-2,5-diazabicyclo[2.2.1]heptan-2-yl]prop-2-en-1-one]
> 1	C=CC(=O)N1CCN(c2nc(OC[C@@]34CCCN3C[C@H](F)C4)nc3cc(-c4cccc5cccc(Cl)c45)c(F)cc23)CC12CC2 [Compound 323]
